How the values were obtained:
[1] = system: Candida albicans strain SC5314; test: Broth microdilution growth inhibition of Candida albicans (CLSI guidelines, OD600 after 24 h); assay type: cell-based; conditions: strain SC5314, OD600 nm after 24 hours, read-out: IC50 for inhibition of growth of C. albicans cells
Procedure: Figure 2 Hypoculoside has antifungal activity. (A) Workflow used in the purification and analysis of hypoculoside from Acremonium sp. F2434. (B) Structure of hypoculoside (8) and its aglycone derivative hypoculine (9). (C) Logarithmically growing Candida albicans cells were exposed to hypoculoside and amphotericin B at various concentrations in triplicates in a 96-well microplate. Growth of the cells was quantified by recording the absorbance at 600 nm after 24 hours. Growth (normalized with respect to DMSO-treated cells) is plotted against log of concentration of the compound. A picture of the microplate after 24 hours of incubation at 30 °C is shown in Supplementary Fig. S2A. (D) Effect of hypoculoside on the growth of Saccharomyces cerevisiae cells grown in YPD medium was analyzed in the similar way as for Candida albicans described above in C.
We evaluated the potency of hypoculoside by examining its effect on the growth of Candida albicans strain (SC5314) using the Clinical and Laboratory Standards Institute (CLSI) guidelines. We used the well-known antifungal amphotericin B as a positive control. We exposed logarithmically growing Candida albicans cells to hypoculoside and amphotericin B at various concentrations and monitored the growth by recording the OD600 nm after 24 hours. […]

[2] = Mammalian cell cytotoxicity assay (PrestoBlue cell viability, 72 hours); assay type: cell-based; conditions: human, A549, MIA PaCa-2, PANC-1, one range for the lines, read-out: cytotoxicity IC50 against human lung and pancreatic carcinoma cell lines
Procedure: Effect of hypoculoside on the growth of three bacterial strains Staphylococcus aureus (ATCC 25923), Pseudomonas aeruginosa (ATCC 9027) and Klebsiella aerogenes (ATCC 13048) was assessed as previously described. Cytotoxicity of hypoculoside on the A549 human lung cell line and the pancreatic carcinoma cell lines MIA PaCa-2 and PANC-1 was determined as described before. A549 and MIA PaCa-2 were seeded at 1,500 cells per well, and PANC-1 cells were seeded at 2,500 cells per well in a 384-well microplate. Cells were treated with hypoculoside at various concentrations and incubated for 72 hours at 37 °C in the presence of 5% CO2. Cytotoxic effect of hypoculoside was measured using the PrestoBlue™ cell viability reagent (Life Technologies). Following incubation of the microplates with the dye for 2 hours, the fluorescence reading (Excitation/Emission: 560 nm/590 nm) was recorded using the Tecan Infinite M1000 Pro reader.

[3] = system: vps35Δ, pep8Δ, vps20Δ, vps27Δ and vps36Δ strains; test: Single-mutant sensitivity growth assay of deletion strains in YPD medium; assay type: cell-based, Saccharomyces cerevisiae
Procedure: Figure 3 Homozygous profiling of hypoculoside in Saccharomyces cerevisiae. (A) logFC (Fitness Coefficient) was plotted against P-value for the 3702 mutants that were analyzed by HOP. The more negative the logFC value of a mutant, more sensitive is the mutant to hypoculoside. Mutants that have logFC < −0.5 and P-value < 0.05 are indicated by red dots and the remaining strains are indicated as blue dots. For the sake of clarity, gene names of only a subset of the top hits are indicated in the plot. (B) Wild type strain BY4743 and 24 deletion strains that were sensitive to hypoculoside in the HOP assay, were grown in the YPD medium in the presence of either DMSO or hypoculoside at different concentrations (0, 0.6, 1.3, 2.7 and 5.5 µM). Normalized growth at the different concentrations of hypoculoside tested after 24 hours of incubation at 30 °C is plotted for each strain.
To test the validity of our HOP data, we first identified 336 ‘hypoculoside-sensitive’ mutants (Supplementary Table S1) that had at least a 1.4-fold inhibitory effect on their growth rate (i.e. logFC ≤ −0.5) with a P-value ≤ 0.05. From the list of 336 mutants, we chose 24 mutants that represent different Gene Ontology categories (see below) and tested their sensitivity to hypoculoside. Eighteen of the total 24 mutants were sensitive to hypoculoside confirming the HOP data (Fig. 3B). We also tested mutants that were predicted to be resistant to hypoculoside (positive logFC ≥ 0.5 and P-value ≤ 0.05). But none of them were resistant to hypoculoside in comparison to wild type strain in the single-mutant sensitivity assays (data not shown).
Figure 5 Structure-activity studies of hypoculoside. (A) Wild type strain (BY4743), vps35Δ, pep8Δ, vps20Δ, vps27Δ and vps36Δ strains were grown in YPD medium in the presence of hypoculoside or hypoculine at the indicated concentrations. Normalized growth at the different concentrations of hypoculoside and hypoculine tested after 24 hours of incubation at 30 °C is plotted for each strain. (B) Wild type strain (BY4743), vps35Δ, pep8Δ, vps20Δ, vps27Δ and vps36Δ strains were grown in YPD medium in the presence of hypoculoside or phytosphingosine or dihydrosphingosine at the indicated concentrations. Normalized growth at the different concentrations of hypoculoside, phytosphingosine and dihydrosphingosine tested after 24 hours of incubation at 30 °C is plotted for each strain.

CC(N)C(O)CCCCCCCCCCCCCCCCCCC(O)C(C)OC1OC(CO)C(O)C(O)C1O (centres unmarked) [hypoculoside, Hypoculoside]
IC50 [1]: 7.6 µM | IC50 at 72 h [2]: 9 to 14 µM | inhibition of growth of the vps35, pep8, vps20, vps27 and vps36 mutants ([3]; 5.5 µM, YPD, 24 hours at 30 °C): completely inhibited | concentration that inhibited the growth of the vps35, pep8, vps20, vps27 and vps36 mutants ([3]; YPD, 24 hours at 30 °C (Fig. 5A)): 5.5 µM | toxicity to vesicular trafficking mutants in comparison to the wild type strain ([3]; several vesicular trafficking mutants): two-fold more toxic
